These results are taken from patent US12466839B2, “Allosteric AKT inhibitors for use in the treatment of Hereditary Hemorrhagic Telangiectasia” (VADERIS THERAPEUTICS AG, priority 2020, dated 2025).

The test system of one experiment is minK (Homo sapiens). As to the kind of experiment: Cardiac ion channel profile. It counts as cell-based.
A further experiment concerns the target T1, FP (Homo sapiens, UniProt P43088).
T1 construct: purchased Millipore
As to the kind of experiment: Millipore Drug Discovery Safety and Liability Panel. In kind it is cell-based.

Experiment [1] concerns mutated forms of all three AKT isoforms containing inactive pleckstrin homology (PH) domains. In words: Biochemical kinase assay, PH-domain mutants.
The target of the next experiment is T2, SST4 (Homo sapiens, UniProt P31391).
T2 construct: Millipore
T2 sequence (P31391 whole entry, species assumed): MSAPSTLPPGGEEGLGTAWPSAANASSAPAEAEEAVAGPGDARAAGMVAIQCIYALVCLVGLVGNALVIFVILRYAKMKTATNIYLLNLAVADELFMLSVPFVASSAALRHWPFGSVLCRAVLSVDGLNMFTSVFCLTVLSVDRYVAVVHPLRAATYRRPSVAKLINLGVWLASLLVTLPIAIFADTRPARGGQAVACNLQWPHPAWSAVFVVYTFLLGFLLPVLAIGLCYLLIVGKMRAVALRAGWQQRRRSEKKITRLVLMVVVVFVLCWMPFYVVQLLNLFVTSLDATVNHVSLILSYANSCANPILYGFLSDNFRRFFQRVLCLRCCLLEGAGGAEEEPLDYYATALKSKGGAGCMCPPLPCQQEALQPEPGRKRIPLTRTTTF
In words: Millipore Drug Discovery Safety and Liability Panel. In kind it is cell-based.

Another experiment has as its target T3, OPRD1 (Homo sapiens, UniProt P41143).
T3 construct: Millipore
The experiment is described as above. It counts as cell-based.

A further experiment concerns the target T4, OT (Homo sapiens, UniProt P30559).
T4 construct: Millipore
The description is as above. It counts as cell-based.

A further experiment has as its target T5, BB2 (Homo sapiens, UniProt P30550).
T5 construct: purchased Millipore
Described as above. It counts as cell-based.

In a further experiment the target is T6, H2 (Homo sapiens, UniProt P25021).
T6 construct: purchased Millipore
T6 sequence (P25021 whole entry): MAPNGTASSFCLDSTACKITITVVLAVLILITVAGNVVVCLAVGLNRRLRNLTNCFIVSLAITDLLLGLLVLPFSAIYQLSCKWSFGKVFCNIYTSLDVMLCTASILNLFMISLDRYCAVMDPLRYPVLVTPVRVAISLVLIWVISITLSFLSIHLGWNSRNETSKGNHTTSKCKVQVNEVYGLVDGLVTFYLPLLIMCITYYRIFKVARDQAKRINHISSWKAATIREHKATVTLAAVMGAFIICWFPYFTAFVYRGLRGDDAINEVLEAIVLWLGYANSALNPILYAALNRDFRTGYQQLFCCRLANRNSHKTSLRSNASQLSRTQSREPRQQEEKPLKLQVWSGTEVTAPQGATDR
The experiment is described as above. It counts as cell-based.

Where [2] appears, read: read-out: ANTAGONIST mean % inhibition.

T1 sequence (P43088 whole entry): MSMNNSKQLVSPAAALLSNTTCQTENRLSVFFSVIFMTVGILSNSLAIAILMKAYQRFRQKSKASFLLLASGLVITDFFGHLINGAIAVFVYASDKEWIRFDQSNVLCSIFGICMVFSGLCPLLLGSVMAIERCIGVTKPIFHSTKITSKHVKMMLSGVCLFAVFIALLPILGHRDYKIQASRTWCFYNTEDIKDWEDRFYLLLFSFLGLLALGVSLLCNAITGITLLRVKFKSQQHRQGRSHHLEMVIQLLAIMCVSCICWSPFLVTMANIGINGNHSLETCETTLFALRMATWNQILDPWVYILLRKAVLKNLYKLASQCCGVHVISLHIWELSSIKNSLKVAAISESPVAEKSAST
T3 sequence (P41143 whole entry, species assumed): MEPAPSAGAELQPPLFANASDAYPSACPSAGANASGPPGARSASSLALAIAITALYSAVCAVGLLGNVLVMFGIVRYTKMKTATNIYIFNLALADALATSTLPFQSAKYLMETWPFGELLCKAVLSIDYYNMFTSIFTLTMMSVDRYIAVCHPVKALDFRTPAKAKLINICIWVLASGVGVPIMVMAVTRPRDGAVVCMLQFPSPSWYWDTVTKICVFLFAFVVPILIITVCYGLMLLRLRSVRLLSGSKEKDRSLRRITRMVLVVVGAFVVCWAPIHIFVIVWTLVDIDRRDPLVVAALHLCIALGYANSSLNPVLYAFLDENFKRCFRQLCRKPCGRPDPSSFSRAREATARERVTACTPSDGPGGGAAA
T5 sequence (P30550 whole entry): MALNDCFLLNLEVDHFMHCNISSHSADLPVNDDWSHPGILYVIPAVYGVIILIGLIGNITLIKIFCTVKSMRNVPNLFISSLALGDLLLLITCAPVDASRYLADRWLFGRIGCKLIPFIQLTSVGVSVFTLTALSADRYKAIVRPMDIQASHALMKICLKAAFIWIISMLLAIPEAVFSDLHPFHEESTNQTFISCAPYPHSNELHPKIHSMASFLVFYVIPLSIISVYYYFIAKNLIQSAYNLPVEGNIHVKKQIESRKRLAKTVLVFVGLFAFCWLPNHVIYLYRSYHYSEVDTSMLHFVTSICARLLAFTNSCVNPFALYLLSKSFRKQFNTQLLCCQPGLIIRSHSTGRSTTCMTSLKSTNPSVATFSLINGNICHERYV
T4 sequence (P30559 whole entry): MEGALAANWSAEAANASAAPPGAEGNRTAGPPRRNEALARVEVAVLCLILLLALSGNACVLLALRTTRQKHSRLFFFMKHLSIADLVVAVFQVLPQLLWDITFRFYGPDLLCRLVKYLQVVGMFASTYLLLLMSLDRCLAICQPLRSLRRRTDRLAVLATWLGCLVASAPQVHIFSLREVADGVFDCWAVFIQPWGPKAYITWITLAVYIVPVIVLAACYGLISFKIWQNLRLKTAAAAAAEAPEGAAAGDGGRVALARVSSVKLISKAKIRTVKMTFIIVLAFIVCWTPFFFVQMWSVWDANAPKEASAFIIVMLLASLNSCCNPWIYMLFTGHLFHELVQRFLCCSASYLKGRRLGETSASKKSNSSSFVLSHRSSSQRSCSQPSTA

Consider `CCN1C(=O)COc2nc(-c3ccc(C4(N)CC(O)C4)cc3)c(-c3ccccc3)cc21.O=C(O)C(O)C(O)C(=O)O` [VAD044, 6-(4-(1-amino-3-hydroxycyclobutyl)phenyl)-1-ethyl-7-phenyl-1H-pyrido[2,3-b][1,4]oxazin-2(3H)-one L-tartrate], for which the inhibition at 10 µM is under 25% with minK (Homo sapiens); 13.6% on FP (setting [2]); 16.5% on SST4 (setting [2]); 2.8% on OPRD1 (setting [2]); 29.5% on OT (setting [2]); 0.9% at BB2 (setting [2]). Moreover, the inhibition at 10 µM on H2 (setting [2]) is -1.8%. Also, the activation at 10 µM is -0.7% on FP (FP, 10 μM, read-out: AGONIST mean % increase in activity); -0.8% on SST4 (SST4, 10 μM, read-out: AGONIST mean % increase in activity); -0.9% at OPRD1 (OPRD1, 10 μM, read-out: AGONIST mean % increase in activity); -1.2% on OT (read-out: AGONIST mean % increase in activity); -0.9% at BB2 (BB2, 10 μM, read-out: AGONIST mean % increase in activity); -0.2% on H2 (H2, 10 μM, read-out: AGONIST mean % increase in activity). Further, the “inhibition of mutated AKT forms” value in experiment [1] was “not inhibited”.

For orientation: inhibition means the relative decrease from the control value, in per cent.
